“Also recorded” adds a separate entry of the source. Like-named read-outs stand apart in the source and are kept apart here.
Experiments:
Type in all cases: cell-based
murine Jak2 V617F cells = assay: MTS growth and proliferation assay of splicing factor inhibitors with and without Ruxolitinib; settings: for IC50: read-out: IC50, concentration of functional inhibitor needed to inhibit cell growth of 50%; for effect between the functional inhibitor and Ruxolitinib on cell growth inhibition: combination with Ruxolitinib (0.5 μM)
Procedure: Growth and proliferation was measured by MTS assay. Data shown are representative of 2 independent experiments with 8 technical replicates, mean±SD. The used splicing factor inhibitors are: a) GSK3326595, a Prmt5 inhibitor; b) Indisulam, a Rbm39 inhibitor; c) Herboxidiene; d) Pladienolide B.
The plates were read at 490 nm in Tecan Infinite M200 and the responses were analyzed using Graph Pad Prism.
After 72 hours, the incubation was stopped and growth measured by MTS assay.

Ybx1 pS30 and pS34 = assay: Drug-perturbed phosphoproteome profiling of Ybx1 phosphosites; settings: 10 μM for 1 hour, murine Jak2V617F BaF3
Text: The size and colour of the dots are proportional to the phosphosite intensity, Z-scored (log 2 intensity).
The cells were lysed in Gmdcl buffer and processed as mentioned in the phospho-proteome sample preparation protocol.

[1] = test system: primary human Jak2-mutated cells; assay: Phosphoproteome of primary patient samples after Jak-i exposure; settings: in vitro and in vivo exposure, 2 hours
Procedure: In brief, peripheral blood samples from patients with Jak2 mutated myeloproliferative neoplasms were collected, granulocytes isolated, and treated with DMSO or Ruxolitinb 0.5 μM for 2 hours (either in vitro or in vivo). Cells were lysed and processed in 4% SDC buffer (4% SDC, 100 mM Tris pH8.5, 10 mM TCEP and 40 mM CAA), heated for 5 mins at 95° C. and cooled on ice for 15 min. Lysed samples were sonicated, heated again for 5 mins and BCA quantified. Approximately 350 μg of proteins were digested with LysC and Trypsin overnight at room temperature and phosphopeptides were enriched by TiO2 beads as described elsewhere.

[2] = Mus musculus, 72 h, in the presence of Ruxolitinib (0.5 μM), 72 hours, MTS
[3] = functional inhibitor alone, 72 hours, MTS
[4] = in the presence of Ruxolitinib (0.5 μM), 72 hours, MTS

| Molecule | IC50 (murine Jak2 V617F cells; [2]) [nM] | effect between the functional inhibitor and Ruxolitinib on cell growth inhibition (murine Jak2 V617F cells) | IC50 (murine Jak2 V617F cells; [3]) [nM] | IC50 (murine Jak2 V617F cells; [4]) [nM] | further results |
| --- | --- | --- | --- | --- | --- |
| CC(=O)N1CCC(Nc2cc(C(=O)NC[C@H](O)CN3CCc4ccccc4C3)ncn2)CC1 [GSK3326595] | 4 | synergistic effect | – | – | IC50 (murine Jak2 V617F cells; Mus musculus, 72 h, functional inhibitor alone, 72 hours, MTS): 1000 nM |
| CO[C@H]([C@@H](C)[C@H]1O[C@]1(C)C[C@H](C)/C=C/C=C(\C)[C@H]1O[C@@H](CC(=O)O)CC[C@@H]1C)[C@@H](C)O [Herboxidiene] | – | synergistic effect | ~16 | ~8 | – |
| NS(=O)(=O)c1ccc(S(=O)(=O)Nc2cccc3c(Cl)c[nH]c23)cc1 [Indisulam] | 500 | synergistic effect | – | – | 50% inhibition of cell growth reached or not (murine Jak2 V617F cells; [3]): not able to reach a 50% inhibition of cell growth |
| O=C(NOC[C@H](O)CO)c1ccc(F)c(F)c1Nc1ccc(I)cc1F [PD0325901] | – | – | – | – | Ybx1 phosphorylation at pS30 and pS34 (Ybx1 pS30 and pS34): responsive; also recorded: able to inhibit |
| N#CC[C@H](C1CCCC1)n1cc(-c2ncnc3[nH]ccc23)cn1 [Ruxolitinib] | – | – | – | – | phosphosites significantly altered [1]: 618 phosphosites |
| Pladienolide B | – | synergistic effect | ~15 | ~7 | – |
